# Reference: publication PMC5526998, “Structural analysis of the regulatory mechanism of MarR protein Rv2887 in M. tuberculosis” (Scientific Reports, 2017)
# Biological target: Rv2887 (Mycobacterium tuberculosis, UniProt P9WME9)
# Assay: biochemical
# Chain of Rv2887 (P9WME9 whole entry): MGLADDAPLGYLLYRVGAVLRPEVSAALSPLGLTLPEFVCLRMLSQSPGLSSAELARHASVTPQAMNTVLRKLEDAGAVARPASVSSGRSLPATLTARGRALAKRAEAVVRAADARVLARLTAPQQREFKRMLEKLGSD
compound,measurement,value
Cc1ccc(C)c(OCCCC(C)(C)C(=O)O)c1 [gemfibrozil],Kd,7.94 µM
Nc1ccc(C(=O)O)c(O)c1 [PAS],Kd,183 µM
